The source of these data is US20080131406A1, “Angiotensin I Derivatives” (NATIONAL UNVERSITY OF SINGAPORE, priority 2005, published 2008).

Molecules are shown by their SMILES.

The test system of assay [1] is experimentally-induced cardiac hypertrophic rats. Nature of the assay: Cardiac hypertrophy induced by abdominal aorta coarctation in rats. The conditions noted are these: for Hypertrophy Index (ventricle weight in mg/body weight in g): aorta-coarcted rats, mean ± SEM, 10 rats. Type of assay: in vivo, Sprague Dawley (SD) rats. As to the method:
The experimental protocol for induction of cardiac hypertrophy in rats was carried out as described by Everett et al (Hypertension, 23:587-592 (1994)). In this procedure, each rat was anaesthetized with 7% w/v chloral hydrate (0.35 g/kg, intraperitoneally). An incision was made in the ventral abdominal wall to access the suprarenal portion of the abdominal aorta. This portion of the abdominal aorta was dissected free and a blunt 23-guage needle was placed adjacent to the aorta. A ligature was placed around the blunt needle and the aorta. The blunt needle was then removed, leaving the aorta constricted to the size of the needle. The resulting coarctation resisted the normal flow of blood from the heart to the lower portion of the body and placed an extra load on the heart. This extra load causes hypertrophy of the heart, especially the left ventricle.
Following surgery, each animal was placed in a cage. The animals had access to water and rat chow ad libitum. The animals were randomly divided into the control group and treatment group. Each group consisted of 10 animals. The treatment group was orally administered various doses of angiotensin IV (95-380 nmoles/kg/day or 74-294 μg/kg/day) dissolved in 0.5 ml saline for four days commencing on the day of surgery. Control animals with coarcted abdominal aorta were administered saline instead of the angiotensin IV solution. Sham animals were animals that underwent the same surgical operations but their aortas were not coarcted.
On the fifth day following surgery, animals were anaesthetised as before. The heart of each animal was then excised, the ventricles dissected and the weight of the ventricles was determined. The index of the ventricle weight (in mg) over the body weight of the animal (in g) was taken as the index of hypertrophy. For sham-operated animals the index was around 2.6, for aorta-coarcted animas the index was above 3.7.
Data were expressed as mean ±SEM. Significant differences were determined by one-way ANOVA and post hoc Newman Kleuf test. The accepted level of significance was p<0.05. […] The effect was dose-dependent and significant anti-cardiac hypertrophic action was brought about by an oral dose of 190 nmoles/kg/day (or 147 μg/kg/day).

Assay [2] concerns neointima formation in catheter-injured carotid artery. Put plainly: Neointima formation after balloon catheter injury of the left carotid artery in rats. The class given is in vivo, Sprague Dawley (SD) rats. The following applies: for % of Lumen Occlusion by Neointima (in catheter-injured carotid artery): mean ± SEM, 6 rats. An excerpt:
SD rats were subjected to left carotid artery injury by the balloon technique according to the method described by Indolfi et al (Circulation, 92:1230-1235 (1995)). In this procedure, rats were anesthetized with chloral hydrate (0.35 g/kg) and a balloon catheter (2F Fogarty, Edwards Laboratories) was introduced through the left external carotid artery into the common carotid artery. The balloon was inflated to a pressure of 2.2 kg/cm^2 by compressed carbogen gas mixture (95% O2 and 5% CO2) and passed three times (three cycles) along the common carotid artery. The catheter was removed, the left external carotid artery was ligated, and the wound was closed. Formation of neointima in the catheter-injured carotid artery occurred and slowed considerably after 14 days (Clowes and Clowes, Lab. Invest., 52:611-616 (1985)). The right common carotid artery was left intact and served as the control artery.
Following the surgery, each animal was placed in a cage. The animals had access to water and rat chow ad libitum. The animals were randomly divided into the control group and treatment group. Each group consisted of 6 animals. The treatment group was orally administered various doses of angiotensin IV (60-360 nmoles/kg/day or 46.5-279 μg/kg/day) dissolved in 0.5 ml saline for 13 days commencing on the day of surgery. Control animals were balloon catheterized animals that were administered saline instead of the angiotensin IV solution.
On the fourteenth day following balloon catheterization, animals were anesthetized as before and both the left and right common arteries of each rat were fixed by perfusion at 120 mm Hg with 100 ml of saline followed by 250 ml of 0.1 M phosphate buffer (pH 7.4) containing 4% paraformaldehyde and 1% glutaralaldehyde and processed for paraffin embedment. Sections of 10 μm thickness were prepared and stained with toluidine blue. Twenty of such sections were cut from the midportion of the artery towards the distal end and used for morphometric evaluation of neointima formation. The area of the medial smooth muscle cells, lumen, and neointima of each section was morphometrically quantitated using an image analysis system consisting of a BX40 light microscope (Olympus, Japan) fitted with a KY-F55B color video camera (JVC, Japan) and a Pentium 166 MHz/MMX microcomputer (Datamini, Singapore) installed with an Image Pro Plus 3.0 System (Media Cybernetics, USA) for Windows 95™. The extent of neointima formation was expressed as a percentage of occlusion of the lumen by the neointima.

As for `CC[C@H](C)[C@H](NC(=O)[C@H](Cc1ccc(O)cc1)NC(=O)[C@@H](N)C(C)C)C(=O)N[C@@H](Cc1cnc[nH]1)C(=O)N1CCC[C@H]1C(=O)N[C@@H](Cc1ccccc1)C(=O)O` [angiotensin IV], the “Hypertrophy Index (ventricle weight in mg/body weight in g)” value is reported as 3.73 ± 0.04 in assay [1] (95 nmole/kg/day oral for 4 days); “*3.23 ± 0.07” in assay [1] (190 nmole/kg/day oral for 4 days, significantly different from Control (p < 0.05)); “*3.40 ± 0.07” in assay [1] (380 nmole/kg/day oral for 4 days, significantly different from Control (p < 0.05)). For the same compound, the “oral dose bringing about significant anti-cardiac hypertrophic action” value in assay [1] (oral, 4 days, effect dose-dependent, or 147 μg/kg/day) is 190 nmol/kg/day. Besides, the “% of Lumen Occlusion by Neointima (in catheter-injured carotid artery)” value in assay [2] (60 nmole/kg/day oral for 13 days) is 52 ± 5%; in assay [2] (120 nmole/kg/day oral for 13 days), 48 ± 1%; in assay [2] (240 nmole/kg/day oral for 13 days, significantly different from Control (p < 0.05)), “*43 ± 2%”; in assay [2] (360 nmole/kg/day oral for 13 days, significantly different from Control (p < 0.05)), “*44 ± 2%”. In assay [2] (oral for 13 days, action dose-dependent, or 186 μg/kg/day), the “oral dose bringing about maximum anti-neointima action” value was 240 nmol/kg/day. For the same compound, the “effect on the thickness of the medial muscle layer” value in assay [2] (oral, 13 days, catheter-injured carotid artery) is “no significant effect”.
